The test system of one experiment is human islet β-cells. Nature of the experiment: In vitro human islet β-cell proliferation (BrdU incorporation). As to conditions: PDGF-AA 50 ng/ml, 2 days. The experiment is classed as cell-based. The source says: For islet studies, human islets were isolated either at Pittsburgh University Medical Center or the University of Alabama, Birmingham. Eight independent human islet preparations from juvenile donors at the age of 8 months, 1.0, 1.5, 2, 3, 4, 5 and 6 years, and three adult islet preparations from donors at the age of 39, 48 and 56 years were used in this study. After isolation, fresh islets were hand-picked and transferred to RPMI-1640 medium supplemented with 0.5% FBS, 0.2% BSA and 2% penicillin/streptomycin for an overnight recovery before experiments. […] To detect in vitro human islet β-cell proliferation stimulated by PDGF-AA, human islets were exposed to 50 μM BrdU for 24 h. Afterwards, human islets were processed in a similar way as in mouse islet studies for immunostaining of insulin, glucagon, PDX1 and BrdU. β-Cell proliferation rate was determined by quantifying percentage of insulin+ cells with BrdU+. More than 50 islets per group were counted for determining cultured human islet β-cell proliferation rate.
(In general: Incorporation of labelled thymidine or its analogues reports DNA synthesis.)

For a further experiment, the system named is mouse islet β-cells. Nature of the experiment: In vitro mouse islet β-cell proliferation (BrdU incorporation). Conditions: juvenile (3 week-old) mouse islets, PDGF-AA 50 ng/ml, 2 days. The experiment is classed as cell-based. How it is done:
Mouse pancreatic islets were purified as described in Chen et al. (2009) Genes Dev. 23, 975-985 and used immediately for assays described in the text. To study Ezh2 induction in cultured islets exposed to mitogens, freshly isolated islets from 2-3-week old, and 7-12-month old C57BL/6 mice were recovered and equilibrated overnight at 37° C., 5% CO2 in RPMI-1640 medium supplemented with 0.5% fetal bovine serum (FBS), 0.2% bovine albumin (BSA) and 2% penicillin/streptomycin. Afterwards, islets were distributed into microplates or dishes, and treated with recombinant human PDGF-AA, prolactin or insulin (Sigma), with or without addition of pharmacological inhibitors, including Sunitinib (Selleck), […]0126 (Sigma), LY294002 (Sigma) or U-73122 (Sigma) at the indicated concentrations. Two days later, islets were harvested for RNA or protein extraction for real-time RTPCR or western blot analyses. To detect phosphorylation of Pdgfr-α by western blot, islets were exposed to PDGF-AA (with or without indicated pharmacological inhibitors) for 90 min before islet harvesting and protein extraction. To detect in vitro islet β-cell proliferation stimulated by PDGF-AA, a final concentration of 50 μM BrdU was introduced into each culture dish 24 h before harvest, followed by standard histological processing. Immunostaining of BrdU and insulin was performed on processed islets, and β-cell proliferation rate was determined by quantifying percentage of insulin+ cells with BrdU+. […] For measuring pancreatic β-cell mass or BrdU by morphometry, three to six mice for each group were analysed. At least five sections separated by more than 300 μm (pancreases) or 50 μm (cultured islets) were immunostained and assessed for each sample. Images were analysed with an ImagePro program by observers blinded to genotype, and pancreatic β-cell mass and percentage of BrdU+β-cells were calculated as described in Chen et al. Polycomb protein Ezh2 regulates pancreatic 6-cell Ink4a/Arf expression and regeneration in diabetes mellitus. […]

Entries after “also recorded” stand apart in the source; their conditions may differ.

“PDGF-AA: recombinant human PDGF-AA, a homodimer of PDGF alpha polypeptides”: the β-cell proliferation result in the experiment on human islet β-cells (adult human islets) was “did not alter”. In the experiment with human islet β-cells (juvenile human islets), the “β-cell BrdU incorporation compared to vehicle-exposed controls” value is “sixfold increase”. Also, the “identity of proliferating BrdU+ cells stimulated by PDGF-AA” value in the experiment with human islet β-cells (juvenile human islets, confocal microscopy) is “predominantly β-cells; also recorded: majority of PDGF-AA stimulated proliferating islet cells were PDX1+cells”. Further, in the experiment with mouse islet β-cells, the “β-cell proliferation assessed by BrdU incorporation” value is “increased β-cell proliferation in juvenile islets; also recorded: induces”.

Source of the values: patent US20150174202A1, “Methods and Compositions for Modulating Beta Cell Proliferation” (The Board of Trustees of the Leland Stanford Junior …, priority 2011, published 2015).
